According to patent US4289776A, “Xanthine derivatives” (Hoechst Aktiengesellschaft, priority 1973, dated 1981):
Converted amounts (≈) assume the structure as drawn.

Tests used:
cerebral blood perfusion = assay: Cerebral blood perfusion by fluvography at the cat (i.v.); type: in vivo
Protocol: (§1) Animal tests were carried out with various oxoalkylxanthine derivatives, in which the toxicity in the mouse, the increase of cerebral and muscular blood perfusion at the cat and the fibrinolytic effect in vitro in the Hanging-Clot-test were measured. Furthermore the broncholytic effect of various compounds was tested.
(§2) 1. Cerebral and muscular blood perfusion by fluvography
(§3) These tests were performed at the cat according to K. Popendiker, I. Boksay and V. Bollmann ("Arzneimittel Forschung" vol. 21 (1971), page 1160).
(§4) The values obtained in the mentioned test 1 are given as Δλ and as half-life values in Table 2 and the results of tests 2 to 5 are enumerated in Table 3. In Table 2 Δλ is the change of blood perfusion.

muscular blood perfusion = assay: Muscular blood perfusion by fluvography at the cat (i.v.); type: in vivo
Protocol: as §1, §2, §3, §4

[1] = test system: bronchospasm against acetylcholine; assay: Broncholytic effect at the narcotized guinea-pig, bronchospasm by acetylcholine; type: in vivo; conditions: Cavia porcellus, iv, 2 min, 2 min. i.p.; for change in vivo at 10 mg/kg: 10 mg/kg i.v.; for change in vivo at 3 mg/kg: 3 mg/kg i.v.
Protocol: (§5) 2. Broncholytic effect at the narcotized guinea-pig
(§6) This test was performed according to H. Konsett and R. Rossler ("Archiv exp. Path. Pharmak." vol. 195 (1940), page 71).

[2] = test system: bronchospasm against histamine; assay: Broncholytic effect at the narcotized guinea-pig, bronchospasm by histamine; type: in vivo; conditions: for change in vivo at 3 mg/kg: 3 mg/kg i.v.; for change in vivo at 10 mg/kg: 10 mg/kg i.v.; for Broncholytic effect against histamine compared with sample 8: guinea pig, in vivo
Protocol: as §5, §6

[3] = test system: bronchospasm against acrotonine; assay: Broncholytic effect at the narcotized guinea-pig, bronchospasm by acrotonine (so in the source); type: in vivo; conditions: 2 min. i.p.
Protocol: as §5, §6

[4] = Toxicity in the mouse (LD50); conditions: in vivo, ip, read-out: Toxicity (LD50-range or LD50)
Protocol: The toxicity was determined as LD50 --range or as LD50 according to Litchfield and Wilcoxon ("J. Pharmacol. exp. Ther." 97 (1949), page 399) in the mouse.

Solubility = type: physicochemical
human blood = assay: Fibrinolytic effect in vitro, Hanging-Clot-test; type: biochemical
Protocol: This effect was measured by the Hanging-Clot-test according to K. N. von Kaulla ("Journ. med. Chem." vol. 8 (1965), page 164) in using human blood. The incubation time was 24 or 48 hours.

[5] = 2 mg/kg i.v. vs sample 8 at 5 mg/kg
[6] = Cavia porcellus, iv, 2 min, 2 min. i.p.
[7] = Cavia porcellus, iv, 2 min, 2 min. i.p., sample in propanediol
[8] = 10 mg/kg i.v., sample in propanediol, sample 1: Longtime effect (footnote 1)
[9] = human blood, 24 hours incubation
[10] = human blood, 48 hours incubation (bracket)

| SMILES | Cerebral blood perfusion half-life (cerebral blood perfusion; 1 mg/kg i.v.) [min] | Cerebral blood perfusion Δλ (change of blood perfusion) (cerebral blood perfusion; 1 mg/kg i.v.) | Cerebral blood perfusion half-life (cerebral blood perfusion; 2 mg/kg i.v.) [min] | Cerebral blood perfusion Δλ (change of blood perfusion) (cerebral blood perfusion; 2 mg/kg i.v.) | Muscular blood perfusion Δλ (change of blood perfusion) (muscular blood perfusion; 1 mg/kg i.v.) | Muscular blood perfusion Δλ (change of blood perfusion) (muscular blood perfusion; 2 mg/kg i.v.) | change in vivo at 10 mg/kg [1] [%] | change in vivo at 3 mg/kg [2, 6] [%] | change in vivo at 10 mg/kg [2, 6] [%] | Change of the bronchospasm in % against acrotonine ([3]; 3 mg/kg i.v.) [%] | Change of the bronchospasm in % against acrotonine ([3]; 10 mg/kg i.v.) [%] | LD50 [4] [mg/kg] | Cerebral blood perfusion half-life (cerebral blood perfusion; 5 mg/kg i.v.) [min] | Cerebral blood perfusion relative to comparison sample 8 (cerebral blood perfusion; 5 mg/kg i.v.) | Cerebral blood perfusion Δλ (change of blood perfusion) (cerebral blood perfusion; 5 mg/kg i.v.) | Muscular blood perfusion Δλ (change of blood perfusion) (muscular blood perfusion; 5 mg/kg i.v.) | Solubility in dimethyl sulphoxide (Solubility) | Solubility in dimethylformamide (Solubility) | Solubility in ethanol (Solubility) | also measured |
| --- | --- | --- | --- | --- | --- | --- | --- | --- | --- | --- | --- | --- | --- | --- | --- | --- | --- | --- | --- | --- |
| CCCCCCn1c(=O)c2c(ncn2CCCCC(C)=O)n(C)c1=O [Sample 3, I-(n-hexyl)-3-methyl-7-(5-oxohexyl)-xanthine] | 0.4 | +0.97 | 7.0 | +1.45 | -0.05 | 0 | -85 | -52 | -90 | -50 | -100 | 250 to 500 | – | – | – | – | – | – | – | Cerebral blood perfusion relative to comparison sample 8 (cerebral blood perfusion; [5]): about two times as strong; Half-life (cerebral) relative to comparison sample 8 (cerebral blood perfusion; [5]): about three times as long; Muscular blood perfusion half-life (muscular blood perfusion; 1 mg/kg i.v.): 3.30 min; Broncholytic effect against histamine compared with sample 8 [2]: improved broncholytic effect against histamine |
| CC(=O)CCCCn1cnc2c1c(=O)n(CC(C)C)c(=O)n2C [Sample 2, 1-isobutyl-3-methyl-7-(5-oxohexyl)-xanthine] | 1.0 | +1.85 | – | – | 0 | – | -29 | -80 | -73 | -20 | -47 | 250 to 500 | 14.3 | about four times stronger | +3.45 | +0.05 | – | – | – | Half-life (cerebral) relative to comparison sample 8 (cerebral blood perfusion; 5 mg/kg i.v.): more than five times longer; Cerebral blood perfusion compared with sample 8 (in words) (cerebral blood perfusion; i.v.): stronger and longer cerebral blood perfusion; Muscular blood perfusion half-life (muscular blood perfusion; 5 mg/kg i.v.): 0.60 min |
| CCCCCCn1cnc2c1c(=O)n(CCCCC(C)=O)c(=O)n2C [Example 2, 1-(5-Oxohexyl)-3-methyl-7-n-hexyl-xanthine] | – | – | – | – | – | – | – | – | – | – | – | – | – | – | – | – | over 10% | over 10% | over 10% | Solubility in water (in words) (Solubility): only sparingly soluble in water |
| CCCCCCCCCCn1cnc2c1c(=O)n(CCCCC(C)=O)c(=O)n2C [Sample 6, 1-(5-oxohexyl)-3-methyl-7-(n-decyl)-xanthine] | 0.2 | +1.40 | – | – | 0 | – | – | – | – | – | – | 500 | – | – | – | – | – | – | – | Cerebral blood perfusion half-life (cerebral blood perfusion; 3 mg/kg i.v.): 0.5 min; Cerebral blood perfusion Δλ (change of blood perfusion) (cerebral blood perfusion; 3 mg/kg i.v.): +2.8; Muscular blood perfusion half-life (muscular blood perfusion; 3 mg/kg i.v.): 4.00 min; Muscular blood perfusion Δλ (change of blood perfusion) (muscular blood perfusion; 3 mg/kg i.v.): +0.30; change in vivo at 10 mg/kg ([1]; sample in propanediol): -50%; change in vivo at 10 mg/kg [2, 7]: -40%; Change of the bronchospasm in % against acrotonine [3, 8]: -50% |
| CCn1cnc2c1c(=O)n(CCCCC(C)=O)c(=O)n2C [Sample 7, 1-(5-oxohexyl)-3-methyl-7-ethyl-xanthine] | 1.5 | +2.46 | 5.0 | +5.17 | +0.22 | +0.10 | -96 | -47 | -90 | -42 | -81 | 250 to 500 | 8.2 | about nine times higher | +8.07 | +0.20 | – | – | – | Cerebral blood perfusion relative to comparison sample 8 (cerebral blood perfusion; 1 mg/kg i.v.): about five times higher; Half-life (cerebral) relative to comparison sample 8 (cerebral blood perfusion; 1 mg/kg i.v.): 1.5 times; Half-life (cerebral) relative to comparison sample 8 (cerebral blood perfusion; 5 mg/kg i.v.): more than three times longer; Muscular blood perfusion half-life (muscular blood perfusion; 1 mg/kg i.v.): 0.40 min; Muscular blood perfusion half-life (muscular blood perfusion; 2 mg/kg i.v.): 5.00 min; Muscular blood perfusion half-life (muscular blood perfusion; 5 mg/kg i.v.): 0.50 min; change in vivo at 3 mg/kg [1]: -28%; Broncholytic effect against histamine compared with sample 8 [2]: improved broncholytic effect against histamine; Fibrinolytic effect relative to comparison sample 8 (human blood): two times as strong; Minimum concentration for partial lysis (human blood; [9]): 50 mmol; Minimum concentration for partial lysis (human blood; [10]): 25 mmol; solubility (Solubility; water, 25° C.): ~20 mg/mL (≈ 68.4 mM) |
| CCCCn1cnc2c1c(=O)n(CCCCC(C)=O)c(=O)n2C [Sample 5, 1-(5-Oxohexyl)-3-methyl-7-(n-butyl)-xanthine] | 1.3 | +2.50 | 1.3 | +2.55 | 0 | 0 | -100 | – | -69 | – | -100 | 250 to 500 | 3.0 | about three times higher | +2.40 | 0 | – | – | – | Cerebral blood perfusion relative to comparison sample 8 (cerebral blood perfusion; 1 mg/kg i.v.): nearly six times higher; change in vivo at 5 mg/kg ([1]; 5 mg/kg i.v.): -100%; change in vivo at 5 mg/kg ([2]; Cavia porcellus, iv, 2 min, 5 mg/kg i.v., 2 min. i.p.): -42%; Change of the bronchospasm in % against acrotonine ([3]; 5 mg/kg i.v.): -70% |
| CC(=O)CCCCn1c(=O)c2c(ncn2CC(C)C)n(C)c1=O [Example 3, 1-(5-oxohexyl)-3-methyl7-isobutyl-xanthine] | – | – | – | – | – | – | – | – | – | – | – | – | – | – | – | – | over 10% | over 10% | over 10% | – |
| CCCn1c(=O)c2c(ncn2CCCCC(C)=O)n(C)c1=O [Sample 1, 1-n-Propyl-3-methyl-7-(5-oxohexyl)-xanthine] | – | – | – | – | – | – | – | – | – | – | – | 100 to 250 | – | – | – | – | over 10% | over 10% | over 10% | change in vivo at 3 mg/kg ([1]; sample in propanediol): -33%; change in vivo at 10 mg/kg ([1]; sample in propanediol): -55%; change in vivo at 3 mg/kg [2, 7]: -63%; change in vivo at 10 mg/kg [2, 7]: -73%; Change of the bronchospasm in % against acrotonine ([3]; 3 mg/kg i.v., sample in propanediol): -40%; Change of the bronchospasm in % against acrotonine [3, 8]: -82%; Fibrinolytic effect relative to comparison sample 8 (human blood): two times as strong; Minimum concentration for partial lysis (human blood; [9]): 40 mmol; Minimum concentration for complete lysis (human blood; [10]): 20 mmol |
